“Also recorded” adds a separate entry of the source. Read-outs that look alike come from different tables or passages of the source. Values belong to the molecule of their own block, whether it stands above or below them.
Key:
P-glycoprotein (P-gp) = target: T1, P-glycoprotein (P-gp) (Homo sapiens, UniProt P08183); assay: P-gp inhibitor and inducer experiments on Caco-2 cell monolayer; type: in vitro ADME; details: for interaction with P-gp: Caco-2 cell monolayer
T1 construct: host or cells: Caco-2 (human colon adenocarcinoma) monolayers, passages 24-35
Procedure: The final concentration of GQD, GQD−GC, and Huang-Lian water extracts were 32, 28, and 6 μg/mL, respectively. […]
containing glucose (25 mM) and HEPES (10 mM). The final concentration of berberine was 5 µM. The final concentration of DMSO was below 1% (v/v). […]
inducer of Caco-2 cells, respectively. For the inhibitor experiments, the Caco-2 cells were cultivated in DMEM until the 21st day. After removal of the medium, the cells were incubated for 30 minutes with HBSS containing 5 µM of verapamil. For the inducer experiments, the cells were cultivated in DMEM until the 18th day, and then […]
was removed on the 21st day, and the cells were then incubated for 30 min with HBSS.
Berberine and glycyrrhizic acid were added to the system following HBSS incubation.
For all bidirectional transport assays, samples (300 µL) were collected after 30, 60, 90, […]
with an equal volume of HBSS. The samples were freeze-dried and then dissolved in 300 µL of methanol. The solutions were filtered through 0.22-µm membranes before […]
3. Inhibitor and inducer experiments […]
respectively. For the inhibition experiments, Caco-2 cells were cultivated in DMEM until the 21st day. After removal of the medium, the cells were incubated for 30 minutes with HBSS containing verapamil (5 µM). For induction experiments, the cells were cultivated in DMEM until the 18th day, and then cultivated in DMEM […]
The medium was removed on the 21st day, and the cells were then incubated for 30 min with HBSS. Berberine and glycyrrhizic acid were added to the system following HBSS incubation.

[1] = Multi-component pharmacokinetic study of GQD, GQD-GC and single herb extracts in rats (plasma, LC/MS/MS); type: in vivo, Sprague-Dawley rats; details: for AUC(0-t) / Cmax / half-life / Tmax: male, Sprague-Dawley, rat; for AUC(0-t): po, read-out: AUClast; for Cmax: read-out: Cmax; for half-life: read-out: T1/2 (converted); for Tmax: read-out: Tmax
Method in brief: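 Male Sprague-Dawley rats (220–250 g, n = 10 per group) dosed orally with GQD, GQD-GC (1.0 g crude drug/mL) or single-herb decoctions. Plasma analytes quantified by LC/MS/MS in positive-ESI SRM mode. Cmax and Tmax taken from measured data, other parameters by non-compartmental or compartmental analysis; mean ± SD.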

[2] = plasma, 18.9 g/kg, GQD group: rats, oral GQD extract 18.9 g/kg, plasma
[3] = GQD group: rats, oral GQD extract 18.9 g/kg, plasma
[4] = GQD-GC group (GQD without Gan-Cao): rats, oral 16.5 g/kg, plasma
[5] = HL (Huang-Lian) group: rats, oral extract 3.54 g/kg, plasma
[6] = GC (Gan-Cao) group: rats, oral extract 2.36 g/kg, plasma

T1 sequence (P08183 whole entry): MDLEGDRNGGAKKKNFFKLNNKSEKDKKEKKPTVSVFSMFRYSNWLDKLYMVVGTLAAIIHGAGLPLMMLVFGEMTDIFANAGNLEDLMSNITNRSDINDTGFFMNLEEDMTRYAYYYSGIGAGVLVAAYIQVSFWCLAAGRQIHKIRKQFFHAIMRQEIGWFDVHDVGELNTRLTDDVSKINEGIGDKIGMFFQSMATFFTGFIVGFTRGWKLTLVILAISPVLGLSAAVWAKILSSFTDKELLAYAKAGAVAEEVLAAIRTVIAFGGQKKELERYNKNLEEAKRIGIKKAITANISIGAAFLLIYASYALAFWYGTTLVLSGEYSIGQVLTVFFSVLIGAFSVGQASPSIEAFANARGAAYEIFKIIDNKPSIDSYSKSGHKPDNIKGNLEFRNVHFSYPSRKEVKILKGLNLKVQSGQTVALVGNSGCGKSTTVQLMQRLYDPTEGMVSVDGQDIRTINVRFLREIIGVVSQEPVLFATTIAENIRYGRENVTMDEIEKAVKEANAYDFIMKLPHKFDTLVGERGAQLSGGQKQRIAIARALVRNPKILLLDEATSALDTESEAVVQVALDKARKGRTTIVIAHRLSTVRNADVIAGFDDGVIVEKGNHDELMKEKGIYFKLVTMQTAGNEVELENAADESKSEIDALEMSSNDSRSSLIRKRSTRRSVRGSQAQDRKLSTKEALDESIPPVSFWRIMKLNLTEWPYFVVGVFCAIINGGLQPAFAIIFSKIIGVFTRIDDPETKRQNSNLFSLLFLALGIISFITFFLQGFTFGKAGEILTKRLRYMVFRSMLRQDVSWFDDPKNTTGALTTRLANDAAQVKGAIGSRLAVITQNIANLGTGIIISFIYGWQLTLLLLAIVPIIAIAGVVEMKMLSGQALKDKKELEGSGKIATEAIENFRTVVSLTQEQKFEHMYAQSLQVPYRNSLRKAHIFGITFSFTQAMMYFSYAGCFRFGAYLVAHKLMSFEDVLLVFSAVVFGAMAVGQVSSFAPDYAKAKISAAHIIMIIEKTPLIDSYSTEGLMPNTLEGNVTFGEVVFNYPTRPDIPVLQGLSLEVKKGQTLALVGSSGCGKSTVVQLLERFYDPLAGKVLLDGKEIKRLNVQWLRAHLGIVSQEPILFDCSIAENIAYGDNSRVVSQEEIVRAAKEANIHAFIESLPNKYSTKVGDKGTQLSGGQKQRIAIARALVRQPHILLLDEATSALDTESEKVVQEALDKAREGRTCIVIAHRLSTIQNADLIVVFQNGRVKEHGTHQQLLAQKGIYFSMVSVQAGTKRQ

interaction with P-gp (P-glycoprotein (P-gp)): P-gp substrate | AUC(0-t) ([1]; plasma, 3.54 g/kg, HL (Huang-Lian) group: rats, oral extract 3.54 g/kg, plasma): 198 ± 76.9 ng·h/mL | AUC(0-t) ([1]; plasma, 3.54 g/kg, Huang-Lian group: rats, oral 3.54 g/kg, plasma): 198 ± 76.9 ng·h/mL | AUC(0-t) ([1]; plasma, 16.5 g/kg, GQD-GC group (GQD without Gan-Cao): rats, oral 16.5 g/kg, plasma): 149 ± 70.8 ng·h/mL | AUC(0-t) ([1]; plasma, 16.5 g/kg, GQD−GC group: rats, oral 16.5 g/kg, plasma): 149 ± 70.8 ng·h/mL | AUC(0-t) [1, 2]: 389 ± 187 ng·h/mL | Cmax [1, 3]: 28.2 ± 17.4 ng/mL | half-life [1, 3]: 685 ± 167 min | Tmax [1, 3]: 23.4 ± 45.6 min | Cmax [1, 4]: 32.3 ± 13.2 ng/mL | half-life [1, 4]: 425 ± 39 min | Tmax [1, 4]: 21 ± 13.8 min | Cmax [1, 5]: 76.7 ± 27.9 ng/mL | half-life [1, 5]: 558 ± 100 min | Tmax [1, 5]: 17.4 ± 67.2 min | increase of AUClast in GQD group compared with the Huang-Lian group ([1]; rats, oral, GQD vs Huang-Lian): 96.5% | improvement of plasma concentrations by GQD (vs Huang-Lian) ([1]; rats, oral, abstract): at least 30%
Structure (SMILES): COc1ccc2cc3[n+](cc2c1OC)CCc1cc2c(cc1-3)OCO2 [Compound 24, berberine]

AUClast [1, 6]: 790.47 ± 362.54 ng·h/mL | AUC(0-t) [1, 2]: 871 ± 571 ng·h/mL | AUC(0-t) ([1]; plasma, 18.9 g/kg, GQD group: rats, oral GQD 18.9 g/kg (1.5-fold of clinical dosage), plasma): 871 ± 571 ng·h/mL | Cmax [1, 6]: 46.4 ± 0.89 ng/mL | half-life [1, 6]: 245 ± 64.2 min | Tmax [1, 6]: 353 ± 58.8 min | Cmax [1, 3]: 55.6 ± 14.3 ng/mL | half-life [1, 3]: 287 ± 599 min | Tmax [1, 3]: 414 ± 16.8 min | change of pharmacokinetics by GQD compared with Gan-Cao ([1]; rats, oral): hardly changed
Structure (SMILES): CC1(C)[C@@H](O[C@H]2O[C@H](C(=O)O)[C@@H](O)[C@H](O)[C@H]2O[C@@H]2O[C@H](C(=O)O)[C@@H](O)[C@H](O)[C@H]2O)CC[C@]2(C)[C@H]3C(=O)C=C4[C@@H]5C[C@@](C)(C(=O)O)CC[C@]5(C)CC[C@@]4(C)[C@]3(C)CC[C@@H]12 [Compound 36, glycyrrhizic acid]
interaction with P-gp (P-glycoprotein (P-gp); listed as GLY): inhibiting P-glycoprotein; also recorded: P-gp inhibitor | counteraction of the impact of rifampicin on BER transport (P-glycoprotein (P-gp); GLY 5 μM, especially after 150 min treatment): could counteract the impact of 5 or 20, but not 50 μM rifampicin
